Assay results: patent US10479784B2, “Substituted pyrazin-2-amines as inhibitors of ATR kinase” (Vertex Pharmaceuticals Incorporated, priority 2008, dated 2019)

These compounds were tested against full-length ATR (Homo sapiens (Human), UniProt Q13535) (assay: ATR Inhibition Assay (radioactive-phosphate incorporation)). Details: read-out: ATR Ki.
Format: biochemical
How it was run: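 Ki(app) was derived by non-linear regression of background-corrected initial rates of 33P incorporation into an 800 μM target peptide, read by phosphocellulose filter scintillation counting. Reaction conditions: 5 nM full-length ATR, 10 μM [γ-33P]ATP, pH 7.5 Tris buffer with MgCl2 and DTT, 25 °C, 10-min preincubation, 24 h run.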

full-length ATR, sequence (Q13535 whole entry): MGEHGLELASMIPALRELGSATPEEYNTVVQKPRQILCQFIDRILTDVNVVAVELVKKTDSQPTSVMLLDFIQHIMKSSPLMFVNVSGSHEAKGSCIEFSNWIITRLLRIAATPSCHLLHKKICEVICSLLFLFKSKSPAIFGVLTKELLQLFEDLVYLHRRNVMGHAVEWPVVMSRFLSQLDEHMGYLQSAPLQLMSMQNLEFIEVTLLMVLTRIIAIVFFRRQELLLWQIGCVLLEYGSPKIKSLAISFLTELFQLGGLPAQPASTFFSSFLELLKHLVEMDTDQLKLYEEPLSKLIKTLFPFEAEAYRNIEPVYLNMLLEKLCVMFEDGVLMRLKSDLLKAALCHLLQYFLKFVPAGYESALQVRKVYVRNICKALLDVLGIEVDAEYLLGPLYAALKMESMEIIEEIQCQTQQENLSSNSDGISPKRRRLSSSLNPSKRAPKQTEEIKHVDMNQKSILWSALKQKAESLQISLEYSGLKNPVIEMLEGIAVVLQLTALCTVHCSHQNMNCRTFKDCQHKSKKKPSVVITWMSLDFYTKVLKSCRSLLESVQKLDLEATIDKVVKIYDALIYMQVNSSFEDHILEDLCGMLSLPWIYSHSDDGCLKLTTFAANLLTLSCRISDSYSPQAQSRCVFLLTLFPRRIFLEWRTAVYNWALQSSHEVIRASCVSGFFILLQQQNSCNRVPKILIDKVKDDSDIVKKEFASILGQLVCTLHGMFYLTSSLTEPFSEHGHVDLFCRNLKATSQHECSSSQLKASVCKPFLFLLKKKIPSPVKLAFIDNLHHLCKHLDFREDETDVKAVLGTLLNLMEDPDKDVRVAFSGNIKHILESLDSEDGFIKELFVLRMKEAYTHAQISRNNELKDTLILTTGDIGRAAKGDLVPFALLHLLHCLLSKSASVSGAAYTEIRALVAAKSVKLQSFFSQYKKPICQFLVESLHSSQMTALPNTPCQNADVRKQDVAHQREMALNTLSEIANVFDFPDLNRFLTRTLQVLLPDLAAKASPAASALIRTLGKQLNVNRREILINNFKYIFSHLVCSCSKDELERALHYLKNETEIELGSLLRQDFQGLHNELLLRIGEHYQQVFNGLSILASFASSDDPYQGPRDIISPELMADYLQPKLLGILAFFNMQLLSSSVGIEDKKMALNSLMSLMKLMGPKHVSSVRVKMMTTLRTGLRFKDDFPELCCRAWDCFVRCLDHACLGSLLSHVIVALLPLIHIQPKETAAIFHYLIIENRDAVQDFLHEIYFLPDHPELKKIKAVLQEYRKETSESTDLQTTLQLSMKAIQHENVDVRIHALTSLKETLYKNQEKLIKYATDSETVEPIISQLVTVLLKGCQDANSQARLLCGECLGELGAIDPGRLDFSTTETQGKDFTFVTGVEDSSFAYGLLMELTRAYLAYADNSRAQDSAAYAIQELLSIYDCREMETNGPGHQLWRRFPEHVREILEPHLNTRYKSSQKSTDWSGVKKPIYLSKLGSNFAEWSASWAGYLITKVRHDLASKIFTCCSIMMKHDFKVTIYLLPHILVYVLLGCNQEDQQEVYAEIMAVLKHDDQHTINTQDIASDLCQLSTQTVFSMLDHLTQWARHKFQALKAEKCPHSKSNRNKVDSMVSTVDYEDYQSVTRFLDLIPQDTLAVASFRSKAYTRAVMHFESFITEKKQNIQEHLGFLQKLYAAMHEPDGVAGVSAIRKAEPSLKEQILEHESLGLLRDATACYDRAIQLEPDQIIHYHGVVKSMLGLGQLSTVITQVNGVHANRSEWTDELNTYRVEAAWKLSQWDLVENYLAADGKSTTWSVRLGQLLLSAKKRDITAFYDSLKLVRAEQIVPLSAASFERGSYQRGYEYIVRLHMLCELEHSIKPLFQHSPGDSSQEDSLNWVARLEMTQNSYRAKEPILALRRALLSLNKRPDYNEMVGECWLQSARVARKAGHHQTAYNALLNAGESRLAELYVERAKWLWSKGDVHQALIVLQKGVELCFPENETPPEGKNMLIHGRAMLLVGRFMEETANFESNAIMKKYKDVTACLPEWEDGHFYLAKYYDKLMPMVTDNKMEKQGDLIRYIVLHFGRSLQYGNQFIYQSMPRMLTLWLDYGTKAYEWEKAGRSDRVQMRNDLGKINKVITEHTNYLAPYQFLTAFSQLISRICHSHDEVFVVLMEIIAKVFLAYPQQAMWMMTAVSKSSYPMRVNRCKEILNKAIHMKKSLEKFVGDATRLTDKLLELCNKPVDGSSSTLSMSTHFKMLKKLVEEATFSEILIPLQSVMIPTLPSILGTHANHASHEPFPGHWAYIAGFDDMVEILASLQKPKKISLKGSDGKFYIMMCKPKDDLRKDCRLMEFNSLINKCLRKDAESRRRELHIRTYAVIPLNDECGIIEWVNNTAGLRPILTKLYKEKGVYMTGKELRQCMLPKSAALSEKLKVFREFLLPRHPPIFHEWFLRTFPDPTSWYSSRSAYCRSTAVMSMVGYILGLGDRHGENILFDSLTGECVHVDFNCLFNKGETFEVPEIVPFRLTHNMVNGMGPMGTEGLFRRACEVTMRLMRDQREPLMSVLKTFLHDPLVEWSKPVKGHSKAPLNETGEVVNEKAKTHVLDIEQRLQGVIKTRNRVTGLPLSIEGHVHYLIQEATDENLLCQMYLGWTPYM

`CC(C)S(=O)(=O)c1ccc(-c2cnc(N)c(-c3nnc(NC(=O)[C@@H]4CCCCN4)o3)n2)cc1` [IA-211, (2S)—N-[5-[3-amino-6-(4-isopropylsulfonylphenyl)pyrazin-2-yl]-1,3,4-oxadiazol-2-yl]piperidine-2-carboxamide] and `CC(C)S(=O)(=O)c1ccc(-c2cnc(N)c(-c3nnc(NC(=O)[C@@H]4CCCN4)o3)n2)cc1` [IA-217, (2S)—N-[5-[3-amino-6-(4-isopropylsulfonylphenyl)pyrazin-2-yl]-1,3,4-oxadiazol-2-yl]pyrrolidine-2-carboxamide] fall in the same range of Ki: 100 to 5000 nM for the first, 100 to 5000 nM for the second.

`CNC(C)c1ccc(-c2nnc(-c3nc(-c4ccc(S(=O)(=O)C(C)C)cc4)cnc3N)o2)cc1` (stereo not shown) [IA-212, 5-(4-isopropylsulfonylphenyl)-3-[5-[4-[1-(methylamino)ethyl]phenyl]-1,3,4-oxadiazol-2-yl]pyrazin-2-amine] and `CC(C)S(=O)(=O)c1ccc(-c2cnc(N)c(-c3nnc(-c4ccc([C@H](C)N)cc4)o3)n2)cc1` [IA-228, 3-[5-[4-[(1S)-1-aminoethyl]phenyl]-1,3,4-oxadiazol-2-yl]-5-(4-isopropylsulfonylphenyl)pyrazin-2-amine] cannot be ordered by Ki: no more than 10 nM for the first, no more than 10 nM for the second.

`CN(C)C(=O)c1ccc(-c2cnc(N)c(-c3nnc(-c4ccccc4OCCN)o3)n2)cc1` [IA-213, 4-[5-amino-6-[5-[2-(2-aminoethoxy)phenyl]-1,3,4-oxadiazol-2-yl]pyrazin-2-yl]-N,N-dimethyl-benzamide] and `COc1ccccc1-c1nnc(-c2nc(-c3ccc(C(=O)N(C)C)cc3)cnc2N)o1` [IA-242, 4-[5-amino-6-[5-(2-methoxyphenyl)-1,3,4-oxadiazol-2-yl]pyrazin-2-yl]-N,N-dimethyl-benzamide] cannot be ordered by Ki: 10 to 100 nM for the first, no more than 10 nM for the second.

First: CC(C)S(=O)(=O)c1ccc(-c2cnc(N)c(-c3nnc(CCN)o3)n2)cc1 [IA-214, 3-[5-(2-aminoethyl)-1,3,4-oxadiazol-2-yl]-5-(4-isopropylsulfonylphenyl)pyrazin-2-amine]
Second: CC(C)S(=O)(=O)c1ccc(-c2cnc(N)c(-c3nnc(NC(=O)C(C)(C)N)o3)n2)cc1 [IA-219, 2-amino-N-[5-[3-amino-6-(4-isopropylsulfonylphenyl)pyrazin-2-yl]-1,3,4-oxadiazol-2-yl]-2-methyl-propanamide]
The Ki of the first is lower: 10 to 100 nM for the first, 100 to 5000 nM for the second.

`CN(C)C(=O)c1ccc(-c2cnc(N)c(-c3nnc(-c4ccccc4O)o3)n2)cc1` [IA-215, 4-[5-amino-6-[5-(2-hydroxyphenyl)-1,3,4-oxadiazol-2-yl]pyrazin-2-yl]-N,N-dimethyl-benzamide] and `CN(C)C(=O)c1ccc(-c2cnc(N)c(-c3nnc(-c4ccccc4C(F)(F)F)o3)n2)cc1` [IA-233, 4-[5-amino-6-[5-[2-(trifluoromethyl)phenyl]-1,3,4-oxadiazol-2-yl]pyrazin-2-yl]-N,N-dimethyl-benzamide] cannot be ordered by Ki: no more than 10 nM for the first, 10 to 100 nM for the second.

Compared with `Nc1ncc(-c2cccc3cccnc23)nc1-c1nnc(-c2ccccc2)o1` [IA-216, 3-(5-phenyl-1,3,4-oxadiazol-2-yl)-5-(8-quinolyl)pyrazin-2-amine], `CSc1ccccc1-c1cnc(N)c(-c2nnc(-c3ccccc3)o2)n1` [IA-230, 5-(2-methylsulfanylphenyl)-3-(5-phenyl-1,3,4-oxadiazol-2-yl)pyrazin-2-amine] is lower in Ki: 100 to 5000 nM for the first, 10 to 100 nM for the second.

`NC(=O)c1ccc(-c2cnc(N)c(-c3nnc(-c4ccccc4)o3)n2)cc1` [IA-218, 4-[5-amino-6-(5-phenyl-1,3,4-oxadiazol-2-yl)pyrazin-2-yl]benzamide] and `CC(=O)Nc1ccc(-c2cnc(N)c(-c3nnc(-c4ccccc4)o3)n2)cc1` [IA-247, N-[4-[5-amino-6-(5-phenyl-1,3,4-oxadiazol-2-yl)pyrazin-2-yl]phenyl]acetamide] fall in the same range of Ki: 10 to 100 nM for the first, 10 to 100 nM for the second.

`CC(C)S(=O)(=O)c1ccc(-c2cnc(N)c(-c3nnc(-c4cccc(CN)c4)o3)n2)cc1` [IA-220, 3-[5-[3-(aminomethyl)phenyl]-1,3,4-oxadiazol-2-yl]-5-(4-isopropylsulfonylphenyl)pyrazin-2-amine] and `CC(C)S(=O)(=O)c1ccc(-c2cnc(N)c(-c3nnc(-c4ccc(CN)cc4)o3)n2)cc1` [IA-222, 3-[5-[4-(aminomethyl)phenyl]-1,3,4-oxadiazol-2-yl]-5-(4-isopropylsulfonylphenyl)pyrazin-2-amine] cannot be ordered by Ki: no more than 10 nM for the first, no more than 10 nM for the second.

First: N#CCc1ccccc1-c1cnc(N)c(-c2nnc(-c3ccccc3)o2)n1 [IA-221, 2-[2-[5-amino-6-(5-phenyl-1,3,4-oxadiazol-2-yl)pyrazin-2-yl]phenyl]acetonitrile]
Second: C[S+]([O-])c1ccccc1-c1cnc(N)c(-c2nnc(-c3ccccc3)o2)n1 (stereo not shown) [IA-241, 5-(2-methylsulfinylphenyl)-3-(5-phenyl-1,3,4-oxadiazol-2-yl)pyrazin-2-amine]
The Ki of the first is higher: 100 to 5000 nM for the first, no more than 10 nM for the second. The second binds more tightly here.

`CN(C)C(=O)c1ccc(-c2cnc(N)c(-c3nnc(-c4ccnc(N)c4)o3)n2)cc1` [IA-223, 4-[5-amino-6-[5-(2-amino-4-pyridyl)-1,3,4-oxadiazol-2-yl]pyrazin-2-yl]-N,N-dimethyl-benzamide] and `CN(C)C(=O)c1ccc(-c2cnc(N)c(-c3nnc(-c4cccc(N)n4)o3)n2)cc1` [IA-231, 4-[5-amino-6-[5-(6-amino-2-pyridyl)-1,3,4-oxadiazol-2-yl]pyrazin-2-yl]-N,N-dimethyl-benzamide] fall in the same range of Ki: 10 to 100 nM for the first, 10 to 100 nM for the second.

`NCCSc1ccccc1-c1cnc(N)c(-c2nnc(-c3ccccc3)o2)n1` [IA-224, 5-(2-(2-aminoethylthio)phenyl)-3-(5-phenyl-1,3,4-oxadiazol-2-yl)pyrazin-2-amine] and `CC(C)Sc1ccccc1-c1cnc(N)c(-c2nnc(-c3ccccc3)o2)n1` [IA-229, 5-(2-isopropylsulfanylphenyl)-3-(5-phenyl-1,3,4-oxadiazol-2-yl)pyrazin-2-amine] fall in the same range of Ki: 100 to 5000 nM for the first, 100 to 5000 nM for the second.

`CC(C)S(=O)(=O)c1ccc(-c2cnc(N)c(-c3nnc(-c4ccc(CNCCN(C)C)cc4)o3)n2)cc1` [IA-225, N-[[4-[5-[3-amino-6-(4-isopropylsulfonylphenyl)pyrazin-2-yl]-1,3,4-oxadiazol-2-yl]phenyl]methyl]-N′,N′-dimethyl-ethane-1,2-diamine] and `CC(C)S(=O)(=O)c1ccc(-c2cnc(N)c(-c3nnc(-c4ccc(CN(C)C)cc4)o3)n2)cc1` [IA-243, 3-[5-[4-(dimethylaminomethyl)phenyl]-1,3,4-oxadiazol-2-yl]-5-(4-isopropylsulfonylphenyl)pyrazin-2-amine] cannot be ordered by Ki: 10 to 100 nM for the first, no more than 10 nM for the second.

`CNCc1csc(-c2nnc(-c3nc(-c4ccc(S(=O)(=O)C(C)C)cc4)cnc3N)o2)c1` [IA-226, 5-(4-isopropylsulfonylphenyl)-3-[5-[4-(methylaminomethyl)-2-thienyl]-1,3,4-oxadiazol-2-yl]pyrazin-2-amine] and `CC(C)S(=O)(=O)c1ccc(-c2cnc(N)c(-c3nnc(-c4ccc(CO)cc4)o3)n2)cc1` [IA-238, [4-[5-[3-amino-6-(4-isopropylsulfonylphenyl)pyrazin-2-yl]-1,3,4-oxadiazol-2-yl]phenyl]methanol] cannot be ordered by Ki: no more than 10 nM for the first, no more than 10 nM for the second.

`CC(C)S(=O)(=O)c1ccc(-c2cnc(N)c(-c3nnc(N4CCCC(CN)C4)o3)n2)cc1` (stereo not shown) [IA-227, 3-[5-[3-(aminomethyl)-1-piperidyl]-1,3,4-oxadiazol-2-yl]-5-(4-isopropylsulfonylphenyl)pyrazin-2-amine] and `CC(C)S(=O)(=O)c1ccc(-c2cnc(N)c(-c3nnc(N4CCNCC4)o3)n2)cc1` [IA-239, 5-(4-isopropylsulfonylphenyl)-3-(5-piperazin-1-yl-1,3,4-oxadiazol-2-yl)pyrazin-2-amine] fall in the same range of Ki: 100 to 5000 nM for the first, 100 to 5000 nM for the second.

`CC(C)S(=O)(=O)c1ccc(-c2cnc(N)c(-c3nnc(C4=CCNCC4)o3)n2)cc1` [IA-232, 5-(4-isopropylsulfonylphenyl)-3-[5-(1,2,3,6-tetrahydropyridin-4-yl)-1,3,4-oxadiazol-2-yl]pyrazin-2-amine] and `CC(C)S(=O)(=O)c1ccc(-c2cnc(N)c(-c3nnc(-c4ccccc4O)o3)n2)cc1` [IA-235, 2-[5-[3-amino-6-(4-isopropylsulfonylphenyl)pyrazin-2-yl]-1,3,4-oxadiazol-2-yl]phenol] cannot be ordered by Ki: 10 to 100 nM for the first, no more than 10 nM for the second.

`CN(C)C(=O)c1ccc(-c2cnc(N)c(-c3nnc(-c4ccc(CN)cc4)o3)n2)cc1` [IA-234, 4-[5-amino-6-[5-[4-(aminomethyl)phenyl]-1,3,4-oxadiazol-2-yl]pyrazin-2-yl]-N,N-dimethyl-benzamide] and `Cc1cccc(-c2nnc(-c3nc(-c4ccc(C(=O)N(C)C)cc4)cnc3N)o2)c1` [IA-237, 4-[5-amino-6-[5-(m-tolyl)-1,3,4-oxadiazol-2-yl]pyrazin-2-yl]-N,N-dimethyl-benzamide] cannot be ordered by Ki: no more than 10 nM for the first, 10 to 100 nM for the second.

`CC(C)S(=O)(=O)c1ccc(-c2cnc(N)c(-c3nnc(-c4ccc(CNCC(F)F)s4)o3)n2)cc1` [IA-236, 3-[5-[5-[(2,2-difluoroethylamino)methyl]-2-thienyl]-1,3,4-oxadiazol-2-yl]-5-(4-isopropylsulfonylphenyl)pyrazin-2-amine] and `Cc1ccc(-c2nnc(-c3nc(-c4ccc(C(=O)N(C)C)cc4)cnc3N)o2)s1` [IA-245, 4-[5-amino-6-[5-(5-methyl-2-thienyl)-1,3,4-oxadiazol-2-yl]pyrazin-2-yl]-N,N-dimethyl-benzamide] fall in the same range of Ki: 10 to 100 nM for the first, 10 to 100 nM for the second.

First: CN(C)Cc1ccc(-c2cnc(N)c(-c3nnc(-c4ccc(CO)cc4)o3)n2)cc1 [IA-240, [4-[5-[3-amino-6-[4-(dimethylaminomethyl)phenyl]pyrazin-2-yl]-1,3,4-oxadiazol-2-yl]phenyl]methanol]
Second: Cc1csc(-c2nnc(-c3nc(-c4ccc(C(=O)N(C)C)cc4)cnc3N)o2)c1 [IA-246, 4-[5-amino-6-[5-(4-methyl-2-thienyl)-1,3,4-oxadiazol-2-yl]pyrazin-2-yl]-N,N-dimethyl-benzamide]
The Ki of the first is higher: 100 to 5000 nM for the first, no more than 10 nM for the second. The second binds more tightly here.

With `CN(C)C(=O)c1ccccc1-c1cnc(N)c(-c2nnc(-c3ccccc3)o2)n1` [IA-244, 2-[5-amino-6-(5-phenyl-1,3,4-oxadiazol-2-yl)pyrazin-2-yl]-N,N-dimethyl-benzamide] the Ki was 100 to 5000 nM.
